{
  "source": "paper PMC11945236",
  "about": "(Molecules, 2025)",
  "key": {"SARS-CoV-2 M^pro": {"target": "SARS-CoV-2 M^pro (Severe acute respiratory syndrome coronavirus 2, UniProt P0DTD1)", "experiment": "biochemical", "conditions": "for inhibition at 10 µM: read-out: Enzymatic Inhibition Rate (%), primary screening, 10 μM, incubation for 5 min"}, "[1]": {"conditions": "experimental value; cited from earlier work"}, "[2]": {"experiment": "MTT cytotoxicity assay, HFF-1 cells", "type": "cell-based", "conditions": "human", "protocol": "(§1) The human HFF-1 and monkey Vero E6 cells were provided by Cell Bank in Shanghai, Chinese Academy of Sciences. HFF-1 cells were cultured in DMEM complete medium containing 15% FBS, 100 U/mL penicillin, and 100 μg/mL of streptomycin, while Vero E6 cells were maintained in DMEM complete medium containing 10% FBS. They were maintained at 37 °C in a humidified atmosphere with 5% CO2 (V/V).\n(§2) The in vitro cytotoxicity of compounds was determined by the standard MTT assay according to our reported procedure. Briefly, well-cultured cells were seeded in 96-well plates at a density of 5 × 10^3 cells per well. After being cultured overnight in a 37 °C humidified incubator (5% CO2, V/V), cells were incubated with tested compounds for 48 h. Then, cells in each well were treated with MTT in PBS (5 mg/mL) for 4 h at 37 °C, and formazan crystals in viable cells were dissolved by dimethyl sulfoxide (150 μL) at ambient temperature. The absorbance of solubilized formazan was measured by the Synergy multimode reader (BioTek, Winooski, VT, American) at the wavelength of 490 nm."}, "adenovirus": {"test_system": "adenovirus", "conditions": "concentrations from 0.0156 μM to 1 μM; cited from earlier work"}, "[3]": {"test_system": "SARS-CoV-2 N proteins in Vero E6 cells", "experiment": "Immunofluorescence assay for viral N proteins in infected Vero E6 cells", "type": "cell-based", "conditions": "10 μM, 48 h", "experimental": "Human Vero E6 cells were infected by live SARS-CoV-2 at an MOI value of 0.01. […] Then, cells in each group were collected and the immunofluorescence assay was used to detect the expression of viral N protein, and the result was analyzed by high-content screening."}, "[4]": {"experiment": "MTT cytotoxicity assay, Vero E6 cells", "type": "cell-based", "conditions": "African green monkey", "protocol": "as §1, §2"}},
  "data": [
    {"smiles": "COc1cc(C(CC=C(C)C)OCCC(C)C)c(OC)c2c1C(=O)C=CC2=O", "note": "(stereo not shown) [Compound 4, 6-(1-(Isopentyloxy)-4-methylpent-3-en-1-yl)-5,8-dimethoxy Naphthalene-1,4-dione]", "values": [
      {"measurement": "inhibition at 10 µM", "setting": "SARS-CoV-2 M^pro", "result": 10.6, "unit": "%"}
    ]},
    {"smiles": "COc1cc(C(CC=C(C)C)OCCC(C)C)c(OC)c2c1/C(=N/O)C=C/C2=N\\O", "note": "(stereo not shown) [Compound 5, (1E,4E)-6-(1-(Isopentyloxy)-4-methylpent-3-en-1-yl)-5,8-dimethoxynaphthal-ene-1,4-dione Dioxime]", "values": [
      {"measurement": "inhibition at 10 µM", "setting": "SARS-CoV-2 M^pro", "result": "~36", "unit": "%"}
    ]},
    {"smiles": "COc1cc(C(CC=C(C)C)OCCC(C)C)c(OC)c2c1/C(=N/OC(=O)c1ccccc1)C=C/C2=N\\OC(=O)c1ccccc1", "note": "(stereo not shown) [Compound 6, (1E,4E)-6-(1-(Isopentyloxy)-4-methylpent-3-en-1-yl)-5,8-dimethoxynaphthalene-1,4-dione O,O-Dibenzoyl Dioxime]", "values": [
      {"measurement": "Enzymatic Inhibition Rate (%)", "setting": "SARS-CoV-2 M^pro; primary screening, 10 μM, incubation for 5 min", "result": "complete loss of activity"},
      {"measurement": "inhibition at 10 µM", "setting": "SARS-CoV-2 M^pro", "result": -6.9, "unit": "%"}
    ]},
    {"smiles": "COc1cc(C(CC=C(C)C)OCCCCC(C)O)c(OC)c2c1/C(=N/O)C=C/C2=N\\O", "note": "(stereo not shown) [Compound 9, (1E,4E)-6-(1-((5-Hydroxyhexyl)oxy)-4-methylpent-3-en-1-yl)-5,8-dimethoxy Naphthalene-1,4-dione Dioxime]", "values": [
      {"measurement": "inhibition at 10 µM", "setting": "SARS-CoV-2 M^pro", "result": 10.7, "unit": "%"}
    ]},
    {"smiles": "COc1cc(C(CC=C(C)C)OCCCCCCCCO)c(OC)c2c1/C(=N/O)C=C/C2=N\\O", "note": "(stereo not shown) [Compound 10, (1E,4E)-6-(1-((8-Hydroxyoctyl)oxy)-4-methylpent-3-en-1-yl)-5,8-dimethoxy Naphthalene-1,4-dione Dioxime]", "values": [
      {"measurement": "inhibition at 10 µM", "setting": "SARS-CoV-2 M^pro", "result": 11.3, "unit": "%"}
    ]},
    {"smiles": "COc1cc(C(CC=C(C)C)OC(=O)C=Cc2ccccc2)c(OC)c2c1/C(=N/O)C=C/C2=N\\O", "note": "(stereo not shown) [Compound 12, 1-((5E,8E)-5,8-bis(Hydroxyimino)-1,4-dimethoxy-5,8-dihydronaphthalen-2-yl)-4-methylpent-3-en-1-yl Cinnamate]", "values": [
      {"measurement": "inhibition at 10 µM", "setting": "SARS-CoV-2 M^pro", "result": 28, "unit": "%"}
    ]},
    {"smiles": "COc1cc([C@@H](CC=C(C)C)OCCC(C)C)c(OC)c2c1/C(=N/O)C=C/C2=N\\O", "note": "[Compound 14, (1E,4E)-6-((R)-1-(Isopentyloxy)-4-methylpent-3-en-1-yl)-5,8-dimethoxy Naphthalene-1,4-dione Dioxime]", "values": [
      {"measurement": "IC50", "setting": "SARS-CoV-2 M^pro", "result": "22.8 ± 4.61", "unit": "µM"}
    ]},
    {"smiles": "COc1cc([C@H](CC=C(C)C)OCCC(C)C)c(OC)c2c1/C(=N/O)C=C/C2=N\\O", "note": "[Compound 15, (1E,4E)-6-((S)-1-(Isopentyloxy)-4-methylpent-3-en-1-yl)-5,8-dimethoxy Naphthalene-1,4-dione Dioxime]", "values": [
      {"measurement": "IC50", "setting": "SARS-CoV-2 M^pro", "result": "12.5 ± 3.59", "unit": "µM"}
    ]},
    {"smiles": "CC(C)=CC[C@@H](O)C1=CC(=O)c2c(O)ccc(O)c2C1=O", "note": "[Shikonin]", "values": [
      {"measurement": "LogP", "setting": "[1]", "result": 1.08},
      {"measurement": "inhibition at 10 µM", "setting": "SARS-CoV-2 M^pro", "result": 51.4, "unit": "%"},
      {"measurement": "CC50 at 48 h", "setting": "[2]", "result": "1.31 ± 0.09", "unit": "µM"},
      {"measurement": "inhibitory effects against adenovirus", "setting": "adenovirus", "result": "showed inhibitory effects against adenovirus"},
      {"measurement": "blue fluorescence (DAPI) from the live cell nucleus", "setting": "[3]", "result": "almost invisible"},
      {"measurement": "expression of viral N proteins versus untreated cells", "setting": "[3]; MOI 0.01", "result": "significantly decreased expression of viral N proteins"},
      {"measurement": "CC50 at 48 h", "setting": "[4]", "result": "1.48 ± 0.06", "unit": "µM"}
    ]}
  ]
}
